Measured values taken from patent publication US11891634B2, “PDE5A destabilizing domains” (The Board of Trustees of the Leland Stanford Junior …, priority 2017, dated 2024).

Key:
Format in all cases: cell-based, human
[1] = test system: HCT 116 cells transduced with the PDE5A DD derived GFP constructs; assay: Response to Tadalafil, GFP expression by FACS in HCT116; settings: for MFI / Stabilization ratio with Tadalafil: 48 hours, HCT116
Description: (§1) PDE5AN (#3) was cloned as AcGFP fusion into pELNS vector carrying mCherry marker and packaged in lentiviral vectors. HCT116 cells were transduced with the construct and stable integrants were selected by cell sorting using mCherry marker. Cells were treated with vehicle (dimethyl sulfoxide, DMSO) or varying doses of Tadalafil (TDF) for 48 hrs with doses ranging from 0.01 μM to 100 μM. Following the treatment, cells were analyzed for GFP expression using FACS. Basal expression was calculated as the ratio of GFP signal in the absence of ligand for a given cell line to auto fluorescence of parental HCT-116 cells. Stabilization ratio was calculated as the ratio of the GFP signal observed in the presence of stabilizing ligand to the signal from the same cell line in the absence of ligand.
HCT 116 cells transduced with the PDE5A DD derived GFP constructs were also tested with increasing doses of Tadalafil. The HCT116 cells were incubated for 48 hours with Tadalafil starting at dose 0.01 μM to 100 μM. The GFP intensity of the Tadalafil treated samples was compared to the parental untransduced HCT116 and DMSO treated cells for each construct. The mean fluorescence intensity was calculated for each sample and used to calculate the stabilization ratios as well as the basal expression for each construct. The stabilization ratios are shown in Table 19 and Table 20 and the basal expression is show in Table 21.

[2] = test system: HCT116 cells transduced with the constructs; assay: Response to Sildenafil, GFP expression by flow cytometry in HCT116; settings: for MFI / Stabilization ratio with Sildenafil: 48 hours, HCT116
Description: Similar experiments were performed in HCT116 cells using sildenafil. The above-mentioned DDs were cloned as AcGFP fusion into pELNS vector carrying mCherry marker and packaged in lentiviral vectors. HCT116 cells were transduced with the constructs and stable integrants were selected by cell sorting using mCherry marker. Cells were treated with sildenafil at the following μM concentrations: 0.01, 0.02, 0.05, 0.14, 0.41, 1.23, 3.7, 11.11, 33.33, and 100 for a duration of 48 hours. The fluorescence was analyzed by flow cytometry and the mean fluorescence intensity was calculated for all samples. […] The stabilization ratios are shown in Table 24 and Table 25 and the basal expression is show in Table 26.

[3] = test system: HCT 116 cells transduced with the PDE5A DD derived GFP constructs; assay: Response to Vardenafil, GFP expression by FACS in HCT116; settings: for MFI / Stabilization ratio with Vardenafil: 48 hours, HCT116
Description: as §1, with “Mutations were created in PDE5A (535-860) catalytic domain using site directed mutagenesis and the mutants were” for “PDE5AN (#3) was”, “constructs” for “construct”, “10 μM Vardenafil (VDF)” for “varying doses of Tadalafil (TDF)”, “hours.” for “hrs with doses ranging from 0.01 μM to 100 μM.”
HCT 116 cells transduced with the PDE5A DD derived GFP constructs were also tested with increasing doses of Vardenafil. The HCT116 cells were incubated for 48 hours with Vardenafil starting at a dose of 0.002 μM to 30 μM. The GFP intensity of the Vardenafil treated samples was compared to the parental untransduced HCT116 and DMSO treated cells for each construct. The mean fluorescence intensity was calculated for each sample and used to calculate the stabilization ratios as well as the basal expression for each construct. The GFP expression was measured using flow cytometry and the mean fluorescence intensity (MFI) was calculated for each sample. The stabilization ratios are shown in Table 13 and Table 14 and the basal expression is show in Table 15.

PDE5AC (#28): AcGFP fused to C-terminal DD 535-860 of PDE5A (Q589R, K591E, N609H, D764V), SEQ ID NO. 25
MFI ([1]; DMSO (no Tadalafil)): 15004 | Basal expression ([1]; Table 21, MFI with DMSO / parental HCT116, Tadalafil experiment): 11.72 | Stabilization ratio with Tadalafil ([1]; Tadalafil 0.01 μM vs DMSO): 0.9 | MFI ([1]; Tadalafil 0.01 μM): 14073 | Stabilization ratio with Tadalafil ([1]; Tadalafil 0.02 μM vs DMSO): 1.0 | MFI ([1]; Tadalafil 0.02 μM): 14513 | Stabilization ratio with Tadalafil ([1]; Tadalafil 0.05 μM vs DMSO): 1.0 | MFI ([1]; Tadalafil 0.05 μM): 15730 | Stabilization ratio with Tadalafil ([1]; Tadalafil 0.14 μM vs DMSO): 1.2 | MFI ([1]; Tadalafil 0.14 μM): 18316 | Stabilization ratio with Tadalafil ([1]; Tadalafil 0.41 μM vs DMSO): 1.9 | MFI ([1]; Tadalafil 0.41 μM): 28462 | Stabilization ratio with Tadalafil ([1]; Tadalafil 1.23 μM vs DMSO): 3.0 | MFI ([1]; Tadalafil 1.23 μM): 44739 | Stabilization ratio with Tadalafil ([1]; Tadalafil 3.7 μM vs DMSO): 4.6 | MFI ([1]; Tadalafil 3.7 μM): 69430 | Stabilization ratio with Tadalafil ([1]; Tadalafil 11.11 μM vs DMSO): 5.7 | MFI ([1]; Tadalafil 11.11 μM): 85998 | Stabilization ratio with Tadalafil ([1]; Tadalafil 33.33 μM vs DMSO): 6.3 | MFI ([1]; Tadalafil 33.33 μM): 95189 | Stabilization ratio with Tadalafil ([1]; Tadalafil 100 μM vs DMSO): 6.5 | MFI ([1]; Tadalafil 100 μM): 97016 | MFI ([2]; DMSO (no Sildenafil)): 13208 | Stabilization ratio with Sildenafil ([2]; Sildenafil 0.01 μM vs DMSO): 1.1 | MFI ([2]; Sildenafil 0.01 μM): 14613 | Stabilization ratio with Sildenafil ([2]; Sildenafil 0.02 μM vs DMSO): 1.2 | MFI ([2]; Sildenafil 0.02 μM): 16502 | Stabilization ratio with Sildenafil ([2]; Sildenafil 0.05 μM vs DMSO): 1.3 | MFI ([2]; Sildenafil 0.05 μM): 17801 | Stabilization ratio with Sildenafil ([2]; Sildenafil 0.14 μM vs DMSO): 2.0 | MFI ([2]; Sildenafil 0.14 μM): 26694 | Stabilization ratio with Sildenafil ([2]; Sildenafil 0.41 μM vs DMSO): 3.3 | MFI ([2]; Sildenafil 0.41 μM): 43862 | Stabilization ratio with Sildenafil ([2]; Sildenafil 1.23 μM vs DMSO): 5.0 | MFI ([2]; Sildenafil 1.23 μM): 65762 | Stabilization ratio with Sildenafil ([2]; Sildenafil 3.70 μM vs DMSO): 6.3 | MFI ([2]; Sildenafil 3.70 μM): 83657 | Stabilization ratio with Sildenafil ([2]; Sildenafil 11.11 μM vs DMSO): 6.1 | MFI ([2]; Sildenafil 11.11 μM): 80269 | Stabilization ratio with Sildenafil ([2]; Sildenafil 33.33 μM vs DMSO): 6.3 | MFI ([2]; Sildenafil 33.33 μM): 83663 | Stabilization ratio with Sildenafil ([2]; Sildenafil 100.00 μM vs DMSO): 6.1 | Basal expression ([2]; Table 26, MFI with DMSO / parental HCT116, Sildenafil experiment): 10.3 | MFI ([3]; DMSO (no Vardenafil)): 13817 | Basal (DMSO/Parental) ([3]; Table 10, GFP signal without ligand / auto fluorescence of parental HCT-116): 10.4 | Basal ([3]; Table 15, MFI with DMSO / parental HCT116, Vardenafil experiment): 7.07 | Stabilization ratio with Vardenafil ([3]; Vardenafil 0.002 μM vs DMSO): 1.1 | MFI ([3]; Vardenafil 0.002 μM): 15437 | MFI ([3]; Vardenafil 0.005 μM): 19446 | Stabilization ratio with Vardenafil ([3]; Vardenafil 0.014 μM vs DMSO): 2.1 | MFI ([3]; Vardenafil 0.014 μM): 29314 | Stabilization ratio with Vardenafil ([3]; Vardenafil 0.041 μM vs DMSO): 3.3 | MFI ([3]; Vardenafil 0.041 μM): 45804 | Stabilization ratio with Vardenafil ([3]; Vardenafil 0.123 μM vs DMSO): 5.4 | MFI ([3]; Vardenafil 0.123 μM): 74153 | Stabilization ratio with Vardenafil ([3]; Vardenafil 0.370 μM vs DMSO): 5.9 | MFI ([3]; Vardenafil 0.370 μM): 81663 | Stabilization ratio with Vardenafil ([3]; Vardenafil 1.111 μM vs DMSO): 6.5 | MFI ([3]; Vardenafil 1.111 μM): 89426 | Stabilization ratio with Vardenafil ([3]; Vardenafil 3.333 μM vs DMSO): 6.7 | MFI ([3]; Vardenafil 3.333 μM): 92290 | Stabilization ratio with Vardenafil ([3]; Vardenafil 10 μM vs DMSO): 6.3 | MFI ([3]; Vardenafil 10 μM): 86985 | Stabilization ratio with Vardenafil ([3]; Vardenafil 30 μM vs DMSO): 6.7 | MFI ([3]; Vardenafil 30 μM): 93145
